Test results taken from patent EP3290412A1, “HIV-1 NUCLEOCAPSID INHIBITORS” (Università degli Studi di Siena, priority 2016, dated 2018).
Like-named read-outs stand apart in the source and are kept apart here.

What was measured:
[1] = target: T1, full length (1-55) HIV-1 NCp7 (Human immunodeficiency virus type 1 group M subtype B, UniProt P12493); assay: Electromobility Shift Assay (EMSA), competition for ssDNA binding; conditions: NCp7 300 nM, M13mp18 ssDNA; positive = >25% inhibition at 100µM
T1 construct: recombinant full length (1-55) HIV-1 NCp7 proteins; made in house
In short: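 Recombinant NL4-3 NCp7 (300 nM in the pre-mix) was combined with compound in 20 mM Tris-HCl pH 7.4, 2 mM MgCl2, 100 mM NaCl, 1 mM DTT, then M13mp18 ssDNA was added for 25 min at 37 °C. Complexes were run on 1% agarose/0.5x TBE and stained with SybrGold. IC50 is the concentration at which bound ssDNA migrated 50% of the bound–unbound distance (triplicate).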

NC(11-55) = NC(11-55) (Human immunodeficiency virus type 1, UniProt P12493); assay: NC inhibition assay (NC-induced cTAR DNA destabilization, fluorescence); type: biochemical, HIV-1; conditions: for inhibition at 100 µM: single point screening, positive = >25% inhibition at 100µM
In short: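 Doubly labelled cTAR (0.1 µM, Alexa488/Dabcyl) pre-complexed with 1 µM Zn-loaded NC(11-55) for 15 min, then compound added for a further 15 min; run at 20 °C in Tris-HCl pH 7.5, 30 mM NaCl, 0.2 mM MgCl2. Fluorescence read at ex 480/em 520 nm. IC50 taken from dose-response fit of % inhibition of NC-induced fluorescence increase.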

[2] = test system: HIV-1 reference strain NL4-3; assay: BiCycle assay (MT-2 then TZM-bl cells); type: cell-based; conditions: for EC50: read-out: Mean EC50 (nM)
In short: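 MT-2 cells were infected with NL4-3 in the presence of five-fold compound dilutions. After 72 h, the supernatant was passed to TZM-bl cells. Two days later, luciferase luminescence was read and IC50 calculated, giving a readout that spans the whole replication cycle.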

[3] = Human immunodeficiency virus 1, NL43, TZM-bl, read-out: BiCycle IC50 nM
[4] = Human immunodeficiency virus 1, NL43, MT-2 cells 72 hours then TZM-bl cells two days, NL4-3, read-out: BiCycle IC50
[5] = Human immunodeficiency virus 1, NL43, TZM-bl

O=C(OCCCC1CCCCC1)c1nc(-c2ccccn2)nc(O)c1O [Compound 14, 3-cyclohexylpropyl 5,6-dihydroxy-2-(pyridin-2-yl)pyrimidine-4-carboxylate]
EMSA screening results [1]: Negative
IC50 (NC(11-55)): 27500 nM
inhibition at 100 µM (NC(11-55)): > 25%
IC50 [2, 3]: 6830 nM

O=C(OCC1CCCCC1)c1nc(-c2ncccc2Cl)nc(O)c1O [Compound 15, cyclohexylmethyl 2-(3-chloropyridin-2-yl)-5,6-dihydroxypyrimidine-4-carboxylate]
EMSA screening results [1]: Positive (A compound showing >25% inhibition when tested at 100µM concentration is considered as "positive")
inhibition at 100 µM (NC(11-55)): > 25%
IC50 [2, 4]: 9660 nM

O=C(NCC1CCCCC1)c1nc(-c2ncccc2Cl)nc(O)c1O [Compound 16, 2-(3-chloropyridin-2-yl)-N-(cyclohexylmethyl)-5,6-dihydroxypyrimidine-4-carboxamide]
EMSA screening results [1]: Positive (A compound showing >25% inhibition when tested at 100µM concentration is considered as "positive")
inhibition at 100 µM (NC(11-55)): > 25%
IC50 [2, 4]: 2050 nM

CC(OC(=O)c1nc(-c2ccccn2)nc(O)c1O)C1CCCCC1 (stereo not drawn) [Compound 17, 1-cyclohexylethyl 5,6-dihydroxy-2-(pyridin-2-yl)pyrimidine-4-carboxylate]
EMSA screening results [1]: Negative
IC50 (NC(11-55)): 90000 nM
inhibition at 100 µM (NC(11-55)): > 25%
IC50 [2, 3]: 2030 nM

Cc1cccc(-c2nc(O)c(O)c(C(=O)N[C@H](C)C3CCCCC3)n2)n1 [Compound 18, (R)-N-(1-cyclohexylethyl)-5,6-dihydroxy-2-(6-methylpyridin-2-yl)pyrimidine-4-carboxamide]
EMSA screening results [1]: Positive (A compound showing >25% inhibition when tested at 100µM concentration is considered as "positive")
IC50 (NC(11-55)): 20000 nM
inhibition at 100 µM (NC(11-55)): > 25%
IC50 [2, 3]: 437 nM

Cc1ccnc(-c2nc(O)c(O)c(C(=O)N[C@H](C)C3CCCCC3)n2)c1 [Compound 19, (R)-N-(1-cyclohexylethyl)-5,6-dihydroxy-2-(4-methylpyridin-2-yl)pyrimidine-4-carboxamide]
EMSA screening results [1]: Positive (A compound showing >25% inhibition when tested at 100µM concentration is considered as "positive")
IC50 (NC(11-55)): 8500 nM
inhibition at 100 µM (NC(11-55)): > 25%
IC50 [2, 3]: 218 nM

C[C@@H](NC(=O)c1nc(-c2ccc(N)cn2)nc(O)c1O)C1CCCCC1 [Compound 20, (R)-2-(5-aminopyridin-2-yl)-N-(1-cyclohexylethyl)-5,6-dihydroxypyrimidine-4-carboxamide]
EMSA screening results [1]: Positive (A compound showing >25% inhibition when tested at 100µM concentration is considered as "positive")
IC50 (NC(11-55)): 3000 nM
inhibition at 100 µM (NC(11-55)): > 25%
IC50 [2, 3]: 94.5 nM

C[C@@H](NC(=O)c1nc(-c2ccc(C(=O)OCc3ccccc3)cn2)nc(O)c1O)C1CCCCC1 [Compound 21, benzyl (R)-6-(4-((1-cyclohexylethyl)carbamoyl)-5,6-dihydroxypyrimidin-2-yl)nicotinate]
EMSA screening results [1]: Positive (A compound showing >25% inhibition when tested at 100µM concentration is considered as "positive")
IC50 (NC(11-55)): 10000 nM
inhibition at 100 µM (NC(11-55)): > 25%
IC50 [2, 3]: 118 nM

C[C@@H](NC(=O)c1nc(-c2ccc3ccccc3n2)nc(O)c1O)C1CCCCC1 [Compound 22, (R)-N-(1-cyclohexylethyl)-5,6-dihydroxy-2-(quinolin-2-yl)pyrimidine-4-carboxamide]
EMSA screening results [1]: Positive (A compound showing >25% inhibition when tested at 100µM concentration is considered as "positive")
IC50 (NC(11-55)): 3000 nM
inhibition at 100 µM (NC(11-55)): > 25%
IC50 [2, 3]: 450 nM

Cc1cccnc1-c1nc(O)c(O)c(C(=O)N[C@H](C)C2CCCCC2)n1 [Compound 23, (R)-N-(1-cyclohexylethyl)-5,6-dihydroxy-2-(3-methylpyridin-2-yl)pyrimidine-4-carboxamide]
EMSA screening results [1]: Positive (A compound showing >25% inhibition when tested at 100µM concentration is considered as "positive")
IC50 (NC(11-55)): 20500 nM
inhibition at 100 µM (NC(11-55)): > 25%
IC50 [2, 3]: 203 nM
EC50 [2, 5]: 200 nM

O=C(NC1(C2CCCCC2)CC1)c1nc(-c2ccccn2)nc(O)c1O [Compound 24, N-(1-cyclohexylcyclopropyl)-5,6-dihydroxy-2-(pyridin-2-yl)pyrimidine-4-carboxamide]
EMSA screening results [1]: Positive (A compound showing >25% inhibition when tested at 100µM concentration is considered as "positive")
IC50 (NC(11-55)): 22500 nM
inhibition at 100 µM (NC(11-55)): > 25%
IC50 [2, 3]: 110 nM

C[C@@H](NC(=O)c1nc(-c2cc3ccccc3cn2)nc(O)c1O)C1CCCCC1 [Compound 25, (R)-N-(1-cyclohexylethyl)-5,6-dihydroxy-2-(isoquinolin-3-yl)pyrimidine-4-carboxamide]
EMSA screening results [1]: Positive (A compound showing >25% inhibition when tested at 100µM concentration is considered as "positive")
IC50 (NC(11-55)): 3000 nM
inhibition at 100 µM (NC(11-55)): > 25%
IC50 [2, 3]: 32 nM

C[C@@H](NC(=O)c1nc(-c2cc(Cl)ccn2)nc(O)c1O)C1CCCCC1 [Compound 26, (R)-2-(4-chloropyridin-2-yl)-N-(1-cyclohexylethyl)-5,6-dihydroxypyrimidine-4-carboxamide]
EMSA screening results [1]: Positive (A compound showing >25% inhibition when tested at 100µM concentration is considered as "positive")
IC50 (NC(11-55)): 1500 nM
inhibition at 100 µM (NC(11-55)): > 25%
IC50 [2, 3]: 121 nM

C[C@@H](NC(=O)c1nc(-c2cc(C(F)(F)F)ccn2)nc(O)c1O)C1CCCCC1 [Compound 27, (R)-N-(1-cyclohexylethyl)-5,6-dihydroxy-2-(4-(trifluoromethyl)pyridin-2-yl)pyrimidine-4-carboxamide]
EMSA screening results [1]: Positive (A compound showing >25% inhibition when tested at 100µM concentration is considered as "positive")
IC50 (NC(11-55)): 12500 nM
inhibition at 100 µM (NC(11-55)): > 25%
IC50 [2, 3]: 433 nM

COc1ccnc(-c2nc(O)c(O)c(C(=O)N[C@H](C)C3CCCCC3)n2)c1 [Compound 28, (R)-N-(1-cyclohexylethyl)-5,6-dihydroxy-2-(4-methoxypyridin-2-yl)pyrimidine-4-carboxamide]
EMSA screening results [1]: Positive (A compound showing >25% inhibition when tested at 100µM concentration is considered as "positive")
IC50 (NC(11-55)): 22000 nM
inhibition at 100 µM (NC(11-55)): > 25%
IC50 [2, 3]: 40.5 nM
EC50 [2, 5]: 41 nM

C[C@@H](NC(=O)c1nc(-c2nc3ccccc3[nH]2)nc(O)c1O)C1CCCCC1 [Compound 29, (R)-2-(1H-benzo[d]imidazol-2-yl)-N-(1-cyclohexylethyl)-5,6-dihydroxypyrimidine-4-carboxamide]
EMSA screening results [1]: Positive (A compound showing >25% inhibition when tested at 100µM concentration is considered as "positive")
IC50 (NC(11-55)): 2500 nM
inhibition at 100 µM (NC(11-55)): > 25%
IC50 [2, 3]: 1780 nM

C[C@@H](NC(=O)c1nc(-c2ncccc2C(F)(F)F)nc(O)c1O)C1CCCCC1 [Compound 30, (R)-N-(1-cyclohexylethyl)-5,6-dihydroxy-2-(3-(trifluoromethyl)pyridin-2-yl)pyrimidine-4-carboxamide]
EMSA screening results [1]: Positive (A compound showing >25% inhibition when tested at 100µM concentration is considered as "positive")
inhibition at 100 µM (NC(11-55)): > 25%
IC50 [2, 4]: 1730 nM

C[C@@H](NC(=O)c1nc(-c2nccc3ccccc23)nc(O)c1O)C1CCCCC1 [Compound 31, (R)-N-(1-cyclohexylethyl)-5,6-dihydroxy-2-(isoquinolin-1-yl)pyrimidine-4-carboxamide]
EMSA screening results [1]: Positive (A compound showing >25% inhibition when tested at 100µM concentration is considered as "positive")
IC50 (NC(11-55)): 3500 nM
inhibition at 100 µM (NC(11-55)): > 25%
IC50 [2, 3]: 100 nM
EC50 [2, 5]: 100 nM

COc1ccc(-c2nc(O)c(O)c(C(=O)N[C@H](C)C3CCCCC3)n2)nc1 [Compound 32, (R)-N-(1-cyclohexylethyl)-5,6-dihydroxy-2-(5-methoxypyridin-2-yl)pyrimidine-4-carboxamide]
EMSA screening results [1]: Positive (A compound showing >25% inhibition when tested at 100µM concentration is considered as "positive")
IC50 (NC(11-55)): 45000 nM
inhibition at 100 µM (NC(11-55)): > 25%
IC50 [2, 3]: 341 nM

C[C@@H](NC(=O)c1nc(-c2ncccc2Cl)nc(O)c1O)C1CCCCC1 [Compound 33, (R)-2-(3-chloropyridin-2-yl)-N-(1-cyclohexylethyl)-5,6-dihydroxypyrimidine-4-carboxamide]
EMSA screening results [1]: Positive (A compound showing >25% inhibition when tested at 100µM concentration is considered as "positive")
IC50 (NC(11-55)): 18000 nM
inhibition at 100 µM (NC(11-55)): > 25%
IC50 [2, 3]: 1220 nM

C[C@@H](NC(=O)c1nc(-c2cccc(Cl)n2)nc(O)c1O)C1CCCCC1 [Compound 34, (R)-2-(6-chloropyridin-2-yl)-N-(1-cyclohexylethyl)-5,6-dihydroxypyrimidine-4-carboxamide]
EMSA screening results [1]: Negative
IC50 (NC(11-55)): 47500 nM
inhibition at 100 µM (NC(11-55)): > 25%
IC50 [2, 3]: 665 nM
